{
  "source": "paper PMC6581572",
  "about": "(ChemMedChem, 2019)",
  "key": {"[1]": {"biological_target": "IAV endonuclease (Influenza A virus, UniProt C3W5S0)", "test": "High throughput endonuclease assay", "type": "biochemical, influenza A/California/04/09 H1N1", "settings": "for LE kcal/(mol·NHA): ligand efficiency, Tables 1 and 2"}, "[2]": {"tested_on": "influenza A/Puerto Rico/08/1934 H1N1 expressing mCherry (PR8-mCherry)", "settings": "read-out: EC50, antiviral activity; cellular assay, previously reported; cited from earlier work"}, "[3]": {"test": "Chemical stability of the isolated compound", "type": "physicochemical", "settings": "isolated tetrazole product, two synthetic routes"}},
  "note": "Like-named read-outs stand apart in the source and are kept apart here.",
  "data": [
    {"compound": "N#Cc1ccc(-c2cc(O)c(=O)[nH]c2-c2ccc(F)cc2)cc1", "note": "[Compound 1]", "values": [
      {"measurement": "LE kcal/(mol·NHA)", "setting": "[1]; LE = −RTln(IC50)/NHA", "result": "0.409 kcal/(mol·NHA)"}
    ]},
    {"compound": "O=c1[nH]c(-c2ccc(F)cc2)c(-c2ccc(-c3nnn[nH]3)cc2)cc1O", "note": "[Compound 2]", "values": [
      {"measurement": "EC50", "setting": "[2]", "result": 11000, "unit": "nM"}
    ]},
    {"compound": "N#Cc1ccc(-c2[nH]c(=O)c(O)cc2-c2ccc(F)cc2)cc1", "note": "[Compound 6]", "values": [
      {"measurement": "LE kcal/(mol·NHA)", "setting": "[1]; LE = −RTln(IC50)/NHA", "result": "0.433 kcal/(mol·NHA)"}
    ]},
    {"compound": "O=c1[nH]c(-c2ccc(-c3nnn[nH]3)cc2)c(-c2ccc(F)cc2)cc1O", "note": "[Compound 7]", "values": [
      {"measurement": "LE kcal/(mol·NHA)", "setting": "[1]; LE = −RTln(IC50)/NHA", "result": "0.403 kcal/(mol·NHA)"}
    ]},
    {"compound": "N#Cc1ccc(-c2cc(O)c(=O)[nH]c2-c2cccc3ccccc23)cc1", "note": "[Compound 8, 4-(5-Hydroxy-2-(naphthalen-1-yl)-6-oxo-1,6-dihydropyridin-3-yl)benzonitrile]", "values": [
      {"measurement": "IC50", "setting": "[1]", "result": 220, "unit": "nM"},
      {"measurement": "LE kcal/(mol·NHA)", "setting": "[1]; LE = −RTln(IC50)/NHA", "result": "0.351 kcal/(mol·NHA)"}
    ]},
    {"compound": "O=c1[nH]c(-c2cccc3ccccc23)c(-c2ccc(-c3nnn[nH]3)cc2)cc1O", "note": "[Compound 9, 5-(4-(1H-Tetrazol-5-yl)phenyl)-3-hydroxy-6-(naphthalen-1-yl)pyridin-2(1H)-one]", "values": [
      {"measurement": "LE kcal/(mol·NHA)", "setting": "[1]; LE = −RTln(IC50)/NHA", "result": "0.354 kcal/(mol·NHA)"}
    ]},
    {"compound": "N#Cc1ccc(-c2cc(O)c(=O)[nH]c2-c2ccc3ccccc3c2)cc1", "note": "[Compound 10, 4-(5-Hydroxy-2-(naphthalen-2-yl)-6-oxo-1,6-dihydropyridin-3-yl)benzonitrile]", "values": [
      {"measurement": "LE kcal/(mol·NHA)", "setting": "[1]; LE = −RTln(IC50)/NHA", "result": "0.330 kcal/(mol·NHA)"}
    ]},
    {"compound": "O=C(O)c1ccc(-c2cc(O)c(=O)[nH]c2-c2ccc(F)cc2)cc1", "note": "[Compound 11, 4-(2-(4-Fluorophenyl)-5-hydroxy-6-oxo-1,6-dihydropyridin-3-yl)benzoic acid]", "values": [
      {"measurement": "IC50", "setting": "[1]", "result": 11, "unit": "nM"},
      {"measurement": "LE kcal/(mol·NHA)", "setting": "[1]; LE = −RTln(IC50)/NHA", "result": "0.455 kcal/(mol·NHA)"}
    ]},
    {"compound": "COC(=O)c1ccc(-c2cc(O)c(=O)[nH]c2-c2ccc(F)cc2)cc1", "note": "[Compound 12, Methyl 4-(2-(4-fluorophenyl)-5-hydroxy-6-oxo-1,6-dihydropyridin-3-yl)benzoate]", "values": [
      {"measurement": "IC50", "setting": "[1]", "result": 125, "unit": "nM"}
    ]},
    {"compound": "Cn1nnnc1-c1ccc(-c2cc(O)c(=O)[nH]c2-c2ccc(F)cc2)cc1", "note": "[Compound 13, 6-(4-Fluorophenyl)-3-hydroxy-5-(4-(1-methyl-1H-tetrazol-5-yl)phenyl)pyridin-2(1H)-one]", "values": [
      {"measurement": "IC50", "setting": "[1]", "result": 298, "unit": "nM"},
      {"measurement": "LE kcal/(mol·NHA)", "setting": "[1]; LE = −RTln(IC50)/NHA", "result": "0.331 kcal/(mol·NHA)"}
    ]},
    {"compound": "Cn1nnc(-c2ccc(-c3cc(O)c(=O)[nH]c3-c3ccc(F)cc3)cc2)n1", "note": "[Compound 14, 6-(4-Fluorophenyl)-3-hydroxy-5-(4-(2-methyl-2H-tetrazol-5-yl)phenyl)pyridin-2(1H)-one]", "values": [
      {"measurement": "IC50", "setting": "[1]", "result": 138, "unit": "nM"},
      {"measurement": "LE kcal/(mol·NHA)", "setting": "[1]; LE = −RTln(IC50)/NHA", "result": "0.348 kcal/(mol·NHA)"}
    ]},
    {"compound": "NS(=O)(=O)c1ccc(-c2cc(O)c(=O)[nH]c2-c2ccc(F)cc2)cc1", "note": "[Compound 15, 4-(2-(4-Fluorophenyl)-5-hydroxy-6-oxo-1,6-dihydropyridin-3-yl)benzenesulfonamide]", "values": [
      {"measurement": "IC50", "setting": "[1]", "result": 347, "unit": "nM"},
      {"measurement": "LE kcal/(mol·NHA)", "setting": "[1]; LE = −RTln(IC50)/NHA", "result": "0.354 kcal/(mol·NHA)"}
    ]},
    {"compound": "CC(=O)NS(=O)(=O)c1ccc(-c2cc(O)c(=O)[nH]c2-c2ccc(F)cc2)cc1", "note": "[Compound 16, N-((4-(2-(4-Fluorophenyl)-5-hydroxy-6-oxo-1,6-dihydropyridin-3-yl)phenyl)sulfonyl)acetamide]", "values": [
      {"measurement": "IC50", "setting": "[1]", "result": 145, "unit": "nM"},
      {"measurement": "LE kcal/(mol·NHA)", "setting": "[1]; LE = −RTln(IC50)/NHA", "result": "0.335 kcal/(mol·NHA)"}
    ]},
    {"compound": "O=c1[nH]c(-c2ccc(F)cc2)c(-c2ccc(-c3cnn[nH]3)cc2)cc1O", "note": "[Compound 17, 5-(4-(1H-1,2,3-Triazol-5-yl)phenyl)-6-(4-fluorophenyl)-3-hydroxypyridin-2(1H)-one]", "values": [
      {"measurement": "IC50", "setting": "[1]", "result": 25, "unit": "nM"},
      {"measurement": "LE kcal/(mol·NHA)", "setting": "[1]; LE = −RTln(IC50)/NHA", "result": "0.401 kcal/(mol·NHA)"}
    ]},
    {"compound": "N#Cc1ccc(-c2cc(O)c(=O)[nH]c2Cc2ccc(F)cc2)cc1", "note": "[Compound 18, 4-(2-(4-Fluorobenzyl)-5-hydroxy-6-oxo-1,6-dihydropyridin-3-yl)benzonitrile]", "values": [
      {"measurement": "IC50", "setting": "[1]", "result": 507, "unit": "nM"},
      {"measurement": "LE kcal/(mol·NHA)", "setting": "[1]; LE = −RTln(IC50)/NHA", "result": "0.360 kcal/(mol·NHA)"}
    ]},
    {"compound": "N#Cc1ccc(-c2cc(O)c(=O)[nH]c2Cc2cccc3ccccc23)cc1", "note": "[Compound 19, 4-(5-Hydroxy-2-(naphthalen-1-ylmethyl)-6-oxo-1,6-dihydropyridin-3-yl)benzonitrile]", "values": [
      {"measurement": "IC50", "setting": "[1]", "result": 114, "unit": "nM"},
      {"measurement": "LE kcal/(mol·NHA)", "setting": "[1]; LE = −RTln(IC50)/NHA", "result": "0.353 kcal/(mol·NHA)"}
    ]},
    {"compound": "N#Cc1ccc(-c2cc(O)c(=O)[nH]c2Cc2ccc3ccccc3c2)cc1", "note": "[Compound 20, 4-(5-Hydroxy-2-(naphthalen-2-ylmethyl)-6-oxo-1,6-dihydropyridin-3-yl)benzonitrile]", "values": [
      {"measurement": "IC50", "setting": "[1]", "result": 660, "unit": "nM"},
      {"measurement": "LE kcal/(mol·NHA)", "setting": "[1]; LE = −RTln(IC50)/NHA", "result": "0.314 kcal/(mol·NHA)"}
    ]},
    {"compound": "O=c1[nH]c(Cc2ccc(F)cc2)c(-c2ccc(-c3nnn[nH]3)cc2)cc1O", "note": "[Compound 21, 5-(4-(1H-Tetrazol-5-yl)phenyl)-6-(4-fluorobenzyl)-3-hydroxypyridin-2(1H)-one]", "values": [
      {"measurement": "IC50", "setting": "[1]", "result": 26, "unit": "nM"},
      {"measurement": "LE kcal/(mol·NHA)", "setting": "[1]; LE = −RTln(IC50)/NHA", "result": "0.385 kcal/(mol·NHA)"}
    ]},
    {"compound": "O=c1[nH]c(Cc2cccc3ccccc23)c(-c2ccc(-c3nnn[nH]3)cc2)cc1O", "note": "[Compound 22, 5-(4-(1H-Tetrazol-5-yl)phenyl)-3-hydroxy-6-(naphthalen-1-ylmethyl)pyridin-2(1H)-one]", "values": [
      {"measurement": "LE kcal/(mol·NHA)", "setting": "[1]; LE = −RTln(IC50)/NHA", "result": "0.358 kcal/(mol·NHA)"}
    ]},
    {"compound": "O=c1[nH]c(Cc2ccc3ccccc3c2)c(-c2ccc(-c3nnn[nH]3)cc2)cc1O", "note": "[Compound 23, 5-(4-(1H-Tetrazol-5-yl)phenyl)-3-hydroxy-6-(naphthalen-2-ylmethyl)pyridin-2(1H)-one]", "values": [
      {"measurement": "LE kcal/(mol·NHA)", "setting": "[1]; LE = −RTln(IC50)/NHA", "result": "0.328 kcal/(mol·NHA)"}
    ]},
    {"compound": "O=C(O)c1ccc(-c2[nH]c(=O)c(O)cc2-c2ccc(F)cc2)cc1", "note": "[Compound 24, 4-(3-(4-Fluorophenyl)-5-hydroxy-6-oxo-1,6-dihydropyridin-2-yl)benzoic acid]", "values": [
      {"measurement": "IC50", "setting": "[1]", "result": 55, "unit": "nM"},
      {"measurement": "LE kcal/(mol·NHA)", "setting": "[1]; LE = −RTln(IC50)/NHA", "result": "0.415 kcal/(mol·NHA)"}
    ]},
    {"compound": "N#Cc1ccc(-c2[nH]c(=O)c(O)cc2Cc2ccc(F)cc2)cc1", "note": "[Compound 25, 4-(3-(4-Fluorobenzyl)-5-hydroxy-6-oxo-1,6-dihydropyridin-2-yl)benzonitrile]", "values": [
      {"measurement": "IC50", "setting": "[1]", "result": 484, "unit": "nM"},
      {"measurement": "LE kcal/(mol·NHA)", "setting": "[1]; LE = −RTln(IC50)/NHA", "result": "0.361 kcal/(mol·NHA)"}
    ]},
    {"compound": "N#Cc1ccc(-c2[nH]c(=O)c(O)cc2Cc2cccc3ccccc23)cc1", "note": "[Compound 26, 4-(5-Hydroxy-3-(naphthalen-1-ylmethyl)-6-oxo-1,6-dihydropyridin-2-yl)benzonitrile]", "values": [
      {"measurement": "IC50", "setting": "[1]", "result": 173, "unit": "nM"},
      {"measurement": "LE kcal/(mol·NHA)", "setting": "[1]; LE = −RTln(IC50)/NHA", "result": "0.343 kcal/(mol·NHA)"}
    ]},
    {"compound": "N#Cc1ccc(-c2[nH]c(=O)c(O)cc2Cc2ccc3ccccc3c2)cc1", "note": "[Compound 27, 4-(5-Hydroxy-3-(naphthalen-2-ylmethyl)-6-oxo-1,6-dihydropyridin-2-yl)benzonitrile]", "values": [
      {"measurement": "IC50", "setting": "[1]", "result": 250, "unit": "nM"},
      {"measurement": "LE kcal/(mol·NHA)", "setting": "[1]; LE = −RTln(IC50)/NHA", "result": "0.335 kcal/(mol·NHA)"}
    ]},
    {"compound": "O=c1[nH]c(-c2ccc(-c3nnn[nH]3)cc2)c(Cc2ccc(F)cc2)cc1O", "note": "[Compound 28, 6-(4-(1H-Tetrazol-5-yl)phenyl)-5-(4-fluorobenzyl)-3-hydroxypyridin-2(1H)-one]", "values": [
      {"measurement": "IC50", "setting": "[1]", "result": 54, "unit": "nM"},
      {"measurement": "LE kcal/(mol·NHA)", "setting": "[1]; LE = −RTln(IC50)/NHA", "result": "0.369 kcal/(mol·NHA)"}
    ]},
    {"compound": "O=c1[nH]c(-c2ccc(-c3nnn[nH]3)cc2)c(Cc2cccc3ccccc23)cc1O", "note": "[Compound 29, 6-(4-(1H-Tetrazol-5-yl)phenyl)-3-hydroxy-5-(naphthalen-1-ylmethyl)pyridin-2(1H)-one]", "values": [
      {"measurement": "LE kcal/(mol·NHA)", "setting": "[1]; LE = −RTln(IC50)/NHA", "result": "0.362 kcal/(mol·NHA)"}
    ]},
    {"compound": "O=c1[nH]c(-c2ccc(-c3nnn[nH]3)cc2)c(Cc2ccc3ccccc3c2)cc1O", "note": "[Compound 30, 6-(4-(1H-Tetrazol-5-yl)phenyl)-3-hydroxy-5-(naphthalen-2-ylmethyl)pyridin-2(1H)-one]", "values": [
      {"measurement": "LE kcal/(mol·NHA)", "setting": "[1]; LE = −RTln(IC50)/NHA", "result": "0.324 kcal/(mol·NHA)"}
    ]},
    {"compound": "O=C(O[C@@H]1Cc2c(O)cc(O)cc2O[C@@H]1c1cc(O)c(O)c(O)c1)c1cc(O)c(O)c(O)c1", "note": "[epigallocatechin gallate, reference compound]", "values": [
      {"measurement": "ligand efficiency of reference inhibitor", "setting": "[1]; LE = −RTln(IC50)/NHA", "result": "0.249 kcal/(mol·NHA)"},
      {"measurement": "IC50", "setting": "[1]; read-out: IC50 of reference inhibitor in this assay, green tea catechin", "result": 1000, "unit": "nM"}
    ]},
    {"compound": "O=c1[nH]c(-c2ccc3ccccc3c2)c(-c2ccc(-c3nn[nH]n3)cc2)cc1O", "note": "[tetrazole derivative of 10, 6-(2-naphthyl)-5-(p-(5-tetrazoyl)phenyl)-3-hydroxypyridin-2(1H)-one]", "values": [
      {"measurement": "Stability of the isolated product", "setting": "[3]", "result": "unexpectedly unstable"}
    ]}
  ]
}
